Literature values, collected in patent US20260218090A1, “A LOW-TEMPERATURE, CAUSTIC DISHWARE […]” (priority 2023, published 2026).
Like-named read-outs stand apart in the source and are kept apart here.

Columns and labels:
S. aureus = details: NaOH 0.1 M (4,000 ppm); 4 or 22 °C; detection limit less than 3 organisms/mL; cited from earlier work
B. subtilis spores = details: NaOH 1.0 M (40,000 ppm), cited from earlier work
C. albicans = details: NaOH 0.5 M (20,000 ppm); 4 or 22 °C; detection limit less than 3 organisms/mL; cited from earlier work
A. niger = details: NaOH 0.5 M (20,000 ppm); 4 or 22 °C; detection limit less than 3 organisms/mL; cited from earlier work
E. coli = details: NaOH 0.01 M (400 ppm); 4 or 22 °C; detection limit less than 3 organisms/mL; cited from earlier work
P. aeruginosa = details: NaOH 0.5 M (20,000 ppm); 22 °C; detection limit less than 3 organisms/mL; cited from earlier work

## [Na+].[OH-] [NaOH, sodium hydroxide]
S. aureus
  Time for reduction of the organism below the detection limit: 1 h
B. subtilis spores; 4 °C, detection limit less than 100 organisms/mL
  Time for reduction of the organism below the detection limit: 8 days
B. subtilis spores; 22 °C, detection limit 10 organisms/mL
  Time for reduction of the organism below the detection limit: 2 days
C. albicans
  Time for reduction of the organism below the detection limit: 1 h
A. niger
  Time for reduction of the organism below the detection limit: 1 h
E. coli
  Time for reduction of the organism below the detection limit: 2 h
P. aeruginosa
  Time for reduction of the organism below the detection limit: 1 h
